Patent publication US7531500B2, “Preventing airway mucus production by administration of EGF-R antagonists” (The Regents of the University of California, priority 1998, dated 2009)

Tests used:
[1] = test system: NCI-H292 cells; assay: Immunoassay of MUC5AC protein in NCI-H292 cells (Example 2); format: cell-based, human; conditions: for MUC5AC protein synthesis induced by the supernatant of activated neutrophils: BIBX1522 10 μg/ml, AG1478 10 μM, AG1295 100 μM, A1 100 μM, 30 min pretreatment, antibodies preincubated with supernatant; for MUC5AC synthesis by supernatant of activated neutrophils, cigarette smoke and H2O2 / MUC5AC protein synthesis by TGFα: DMSO 1%, SOD 300 U/ml; for MUC5AC synthesis by supernatant of activated neutrophils, cigarette smoke and H2O2: DMTU 50 mM
Protocol: Cell Culture. NCI-H292 cells, a human pulmonary mucoepidermoid carcinoma cell line, were grown in RPMI 1640 medium containing 10% fetal bovine serum, penicillin (100 U/ml), streptomycin (100 μg/ml) and Hepes (25 mM) at 37° C. in a humidified 5% CO2, water-jacketed incubator. Either 6-well culture plates or 8-chamber slides were used to culture the cells. […] The cells were then washed and incubated with fresh medium alone. Experiments were terminated at preselected times (for mRNA, 6 h and 12 h; for protein, 24 h). As controls, cells were incubated with medium alone for same time periods. […] In inhibition studies with blocking antibodies to EGF-R ligands, the supernatants were pretreated with anti-TGFα antibody (Calbiochem) or anti-EGF antibody for 30 min and then added to NCI-H292 cells. The role of oxygen free radicals was examined using scavengers of oxygen free radical DMSO (1%, Sigma), 1,3-dimethyl-2-thiourea (DMTU, 50 mM, Sigma), or superoxide dismutase (SOD, 300 U/ml, Sigma).
Preparation of Cigarette Smoke Solution. Research cigarettes (code2R1, produced for the University of Kentucky Tobacco and Health Research Foundation) were used in the study. Cigarette smoke solution was prepared as previously described (Dusser et al. (1989) J. Clin. Invest. 84:900-906). In brief, cigarette smoke was withdrawn into a polypropylene syringe (35 ml) at a rate of one puff/min (10 times) and bubbled slowly into 20 ml of RPM11640 containing 50 mM Hepes buffer. The smoke solution was then titrated to pH 7,4 and used immediately after preparation.
Immunoassay of MUC5AC Protein. MUC5AC protein was measured as described above. In brief, cell lysates were prepared with PBS at multiple dilutions, and 50 μl of each sample was incubated with bicarbonate-carbonate buffer (50 μl) at 40° C. in a 96-well plate (Maxisorp Nunc, Fisher Scientific, Santa Clara, Calif.), until dry. Plates were washed three times with PBS and blocked with 2% BSA (fraction V, Sigma) for 1 h at room temperature. Plates were again washed three times with PBS and then incubated with 50 μl of mouse monoclonal MUC5AC antibody (1:100) that was diluted with PBS containing 0.05% Tween 20. After 1 h, the wells were washed three times with PBS, and 100 μl horseradish peroxidase-goat anti-mouse IgG conjugate (1:10,000, Sigma) was dispensed into each well. After 1 h, plates were washed three times with PBS. Color reaction was developed with TMB peroxidase solution (Kirkegaard & Perry Laboratories, Gaithersburg, Md.) and stopped with 2N H2SO4. Absorbance was read at 450 nm.

[2] = test system: NCI-H292 cells; assay: MUC5AC mRNA and protein in NCI-H292 cells incubated with cigarette smoke solution (Example 7); format: cell-based, human; conditions: BIBX1522 10 μg/ml, AG1478 10 μM; for MUC5AC protein synthesis induced by cigarette smoke solution: AG1295 100 μM, A1 100 μM, DMSO 1%, SOD 300 U/ml
Protocol: NCI-H292 cells, a human pulmonary mucoepidermoid carcinoma cell line, were grown in RPMI 1640 medium containing 10% fetal bovine serum, penicillin (100 U/ml), streptomycin (100 μg/ml) and Hepes (25 mM) at 37° C. in a humidified 5% CO2 water-jacketed incubator. Either 6-well culture plates or 8-chamber slides were used to culture the cells. When confluent, cells were incubated for 1 hour with cigarette smoke solution. The cells were then washed and incubated with fresh medium alone. Experiments were terminated at preselected times (for mRNA, 6 hours and 12 hours; for protein, 24 hours). As controls, cells were incubated with medium alone for same time periods. […] The effects of a selective inhibitor of platelet-derived growth factor receptor tyrosine kinase (tyrphostin AG1295, 100 μM, Calbiochem), and a negative control for tyrphostins (tyrphostin A1, 100 μM, Calbiochem) were also examined. The role of reactive oxygen species was examined using a scavenger of oxygen free radicals DMSO (1%, Sigma), or superoxide dismutase (SOD, 300 U/ml, Sigma).
In situ hybridization was performed using a human EGFR probe, which contains a 350-bp cDNA fragment of the human EGFR gene (pTRI-EGFR-human probe template, Ambion, Austin, Tex.) and a human MUC5AC probe, which contains a 298-bp cDNA fragment of the human MUC5AC gene, The 350-bp cDNA human EGFR was subcloned into pBluescript II SK-vector at Kpn I and EcoR I sites. This pBluescript was used to generate human EGFR antisense and sense probes. Hybridization was performed as described previously. Lou et al. (1998) Am. J. Respir. Crit. Care Med. 157:1927-1934. In brief, the cells grown on the 8-chamber slides were fixed in 4% paraformaldehyde, rehydrated in 0.5×SSC, and then acetylated in triethanolamine and acetic anhydride. Hybridization was carried out with 2500-4000 cpm/μl of antisense or sense probe in 50% deionized formamide, 0.3 M NaCl, 20 mM Tris, 5 mM EDTA, 1× Denhardt's solution, 20 mM dithiothreitol, 10% dextran sulfate, 0.5 mg/ml yeast tRNA, and 0.5 mg/ml sonicated salmon sperm DNA at 58° overnight. Posthybridization treatment consisted of washes with 2×SSC, 1 mM EDTA, 10 mM β-mercaptoethanol at room temperature, incubation with RNase solution (20 μg/ml) for 30 min at room temperature, and further washes in 0.1×SSC, 1 mM EDTA, 10 mM β-mercaptoethanol at 55° C. for 2 hours and then in 0.5×SSC at room temperature for 20 minutes. Specimens were dehydrated, air-dried, and covered with Kodak NBT nuclear track emulsion (Eastman Kodak, Rochester, N.Y.) for autoradiography. After exposure for 7 to 21 days at 4° C., the slides were developed, fixed, and counterstained with hematoxylin.
MUC5AC protein was measured as described previously. Takeyama et al. (1999) Proc. Natl. Acad. Sci. USA 96:3081-3086. In brief, cell lysates were prepared with PBS at multiple dilutions, and 50 μl of each sample was incubated with bicarbonate-carbonate buffer (50 μl) at 40° C. in a 96-well plate (Maxisorp Nunc, Fisher Scientific, Santa Clara, Calif.), until dry. Plates were washed three times with PBS and blocked with 2% bovine serum albumin, fraction V (Sigma) for 1 hour at room temperature. Plates were again washed three times with PBS and then incubated with 50 μl of MUC5AC mAb (1:1 00) that was diluted with PBS containing 0.05% Tween 20. After 1 hour, the wells were washed three times with PBS, and 100 μl horseradish peroxidase-goat anti-mouse IgG conjugate (1:10,000) was dispensed into each well. After 1 hour, plates were washed three times with PBS. Color reaction was developed with 3,3′,5,5′-tetramethylbenzidine (TMB) peroxidase solution (Kirkegaard & Perry Laboratories, Gaithersburg, Md.) and stopped with 2N H2S04. Absorbance was read at 450 nm.

[3] = molecular target: EGFR (Homo sapiens, UniProt P00533); assay: Immunoprecipitation of EGF-R and immunoblotting for tyrosine phosphorylation in NCI-H292 cells; format: cell-based; design: These cells express EGF-R constitutively; endogenous in cells; host or cells: NCI-H292 (human pulmonary mucoepidermoid carcinoma)
EGFR, sequence (P00533 25-1210): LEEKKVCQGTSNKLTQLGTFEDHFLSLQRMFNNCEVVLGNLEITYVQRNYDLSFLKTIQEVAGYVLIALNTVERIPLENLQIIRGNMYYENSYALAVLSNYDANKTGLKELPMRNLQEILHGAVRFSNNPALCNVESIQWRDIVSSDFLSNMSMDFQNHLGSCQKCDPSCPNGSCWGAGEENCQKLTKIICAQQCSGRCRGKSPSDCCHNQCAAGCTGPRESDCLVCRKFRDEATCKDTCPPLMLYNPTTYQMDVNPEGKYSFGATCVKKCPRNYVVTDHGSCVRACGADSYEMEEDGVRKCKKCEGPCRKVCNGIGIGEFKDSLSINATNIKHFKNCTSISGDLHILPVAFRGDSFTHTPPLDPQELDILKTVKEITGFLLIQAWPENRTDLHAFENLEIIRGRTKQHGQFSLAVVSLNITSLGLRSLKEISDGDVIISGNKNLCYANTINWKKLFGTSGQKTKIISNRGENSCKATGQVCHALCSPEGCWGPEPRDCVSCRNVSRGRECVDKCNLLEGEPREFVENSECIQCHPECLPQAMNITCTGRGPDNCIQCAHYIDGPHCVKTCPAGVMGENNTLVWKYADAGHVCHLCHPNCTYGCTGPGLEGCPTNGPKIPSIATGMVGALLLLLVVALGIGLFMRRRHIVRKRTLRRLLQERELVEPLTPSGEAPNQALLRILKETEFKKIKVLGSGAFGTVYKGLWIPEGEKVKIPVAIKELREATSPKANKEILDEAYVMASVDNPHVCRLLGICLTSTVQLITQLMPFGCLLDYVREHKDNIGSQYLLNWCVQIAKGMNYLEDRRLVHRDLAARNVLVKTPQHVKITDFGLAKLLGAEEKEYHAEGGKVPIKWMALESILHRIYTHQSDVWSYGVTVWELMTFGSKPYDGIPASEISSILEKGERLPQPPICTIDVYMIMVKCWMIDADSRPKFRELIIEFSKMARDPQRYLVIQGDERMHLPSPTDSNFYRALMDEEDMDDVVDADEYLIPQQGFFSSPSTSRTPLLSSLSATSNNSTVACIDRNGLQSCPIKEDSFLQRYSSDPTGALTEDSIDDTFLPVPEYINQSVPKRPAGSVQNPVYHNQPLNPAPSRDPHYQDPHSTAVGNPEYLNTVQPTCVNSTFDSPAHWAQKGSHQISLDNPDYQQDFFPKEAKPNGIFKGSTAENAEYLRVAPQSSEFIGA
Protocol: Immunoprecipitation for EGF-R Protein and Immunoblotting for Tyrosine Phosphorylation. Cells were serum-starved for 24 h and then stimulated with TGFα, H2O2, or the supernatant of activated neutrophils for 15 min. After stimulation, cells were lysed and incubated for 30 min in an orbital shaker at 4° C. To remove insoluble material, cell lysates were centrifuged at 14,000 rpm for 5 min at 4° C. Aliquots of supernatants containing equal amounts of protein were immunoprecipitated with anti-EGF receptor antibody (polyclonal, Ab4, Calbiochem) and 20 μl of protein A-agarose (Santa Cruz) for 2 h at 4° C. Precipitates were washed three times with 0.5 ml of lysis buffer, suspended in SDS sample buffer, and boiled for 5 min. Proteins were separated by SDS-PAGE in 8.0% acrylamide gel. The resulting gel was equilibrated in the transfer buffer: 25 mM Tris-HCl, 192 mM glycine, 20% (vol/vol) methanol, pH 8.3. The proteins were then transferred electrophoretically to nitrocellulose membranes (0.22 μm), blocked with 5% fat-free skimmed milk in PBS containing 0.05% Tween 20 overnight and then incubated with monoclonal anti-phosphotyrosine antibody (1:100,Santa Cruz) for 1 h. Bound antibody was visualized according to a standard protocol for the avidin-biotin-alkaline phosphatase complex method (ABC kit, Vector Laboratories).

Compound | MUC5AC protein synthesis induced by the supernatant of activated neutrophils [1] | MUC5AC protein synthesis induced by cigarette smoke solution [2] | increase in MUC5AC protein synthesis induced by all stimuli (cigarette smoke, H2O2, TGFα) ([1]; pretreatment 10 μM) | MUC5AC mRNA expression induced by cigarette smoke solution [2] | MUC5AC synthesis induced by cigarette smoke [1] | MUC5AC synthesis by supernatant of activated neutrophils, cigarette smoke and H2O2 [1] | MUC5AC protein synthesis by TGFα [1] | TGFα-induced EGF-R tyrosine phosphorylation [3] | supernatant-, cigarette smoke-, and H2O2-induced EGF-R tyrosine phosphorylation [3]
Cc1cc2ncc(-c3ccccc3)nc2cc1C [AG1295] | without effect | without effect |  |  |  |  |  |  | 
COc1cc2ncnc(Nc3cccc(Cl)c3)c2cc1OC [AG1478] | prevented | prevented | prevented | prevented |  |  |  |  | 
C[S+](C)[O-] [DMSO] |  | inhibited significantly |  |  | partially inhibited | significantly inhibited | unaffected | had no effect | inhibited
superoxide dismutase [SOD] |  | inhibited significantly |  |  | partially inhibited | significantly inhibited | unaffected |  | 
